The conditions of data set [1]: rat, in vivo, po, 1 mg/kg.
Protocol: Blood collection: The animals were fixed and had their tails warmed in a water bath 10 min prior to blood collection; about 100 μL of blood was collected through the tail vein for each animal and put into an anticoagulation tube containing hepatin; the blood samples were subject to centrifugation at 8000 rpm for 6 min at 4° C. to obtain plasma samples, which had to be obtained within 30 minutes after blood was collected; the plasma samples were stored in a freezer at −80° C. for future tests.
Sample analysis: 50 μL of each plasma sample from the freezer was transferred to a centrifugal tube; 100 μL of water and 400 μL of MTBE standard solution (50 ng/mL) were added into the tube and well mixed with the plasma; the obtained mixture was mixed for 10 minutes using a vortex mixer and then subject to centrifugation for 5 minutes (12000 r/min); 300 μL of the supernatant was transferred to another centrifugal tube and blown dry with nitrogen gas; the resultant substance was dissolved in 200 μL of a solution consisting of methanol and water at a ratio of 1:1, of which 20 μL was used for the LC-MS/MS measurement.
Data processing: the compound concentration was output by Analyst 1.6.1 (AB Sciex); the means, standard deviations, and variation coefficients were calculated using Microsoft Excel (no calculation needed if these parameters were directed output by Analyst 1.6.1), and pharmacokinetic parameters were determined using the NCA analysis object in Pharsight Phoenix 6.3.
Data set [2] in a line: Absorption of Compound I of different particle sizes/formulations in male SD rats (Example 3-1). Format: in vivo. The conditions noted are these: intragastric single dose 1.0 mg/kg; for AUCINF: 1 mg/kg; for BA %: absolute bioavailability vs IV 2.0 mg/kg. As to the method: Compound I with different formulations and/or different D90 values was compared for absorptions in male SD rats.
Samples to test: Compound I was prepared by the method as described in Example 1 of WO2014094664A1, and then pulverized to provide Compound I samples having D90 of 538 nm, 3.8 μm, 21.7 μm, 41.5 μm and 71.6 μm, respectively; immediately before the tests, these samples were suspended in 0.5% MC to obtain 1 mg/mL suspensions.
Solutions: 5% DMSO+95% (solution containing 6% HP-β-CD)
Solid dispersions: Compound I: Polyvinylpyrrolidone K30=1:8 (w/w)
The formulation for intravenous injection was a solution where Compound I was dissolved in 5% DMSO+95% (6% HP-β-CD solution), and SD rats were administered at a dose of 2 mg/kg.

Data set [3] concerns patients with diabetic nephrophthy. The conditions noted are these: cited from earlier work.
Data set [4] in a line: Absorption of Compound I D90 5 μm suspension in Beagle dogs (Example 3-2). Particulars: intragastric single dose 0.5 mg/kg, suspension in 0.5% MC. The class given is in vivo. How it is done: Sample to test: Compound I having D90 of 5 μm was suspended in 0.5% MC immediately before tests, to prepare 0.25 mg/mL suspension.
Animals: Three Beagle Dogs.
(1) All animals fasted for 12 h or longer before drug administration, and food was supplied 4 h after drug administration, with ad libitum access to water all the time. […] The collected blood was stored in a dry tube with heparin (normal saline containing 0.1% heparin sodium). (2) Plasma preparation: The whole blood samples collected in step (1) were subject to centrifugation at a low speed (8000 r/min, 6 min, 4° C.) to separate the plasma (the whole blood was stored in a mobile freezer at about 0 to 4° C., and plasma had to be separated within 30 minutes after the blood collection), and the plasma was kept in dark in a freezer at −70° C. (or lower) for future analysis.

Like-named read-outs stand apart in the source and are kept apart here.

In turn, Polyvinyl alcohol showed an AUCINF in data set [1] of 603 ng·h/mL.

The compound hydroxypropyl-β-cyclodextrin displayed an AUCINF in data set [1] of 350 ng·h/mL.

Take Poloxamer 188: the AUCINF in data set [1] came out at 712 ng·h/mL.

In the case of Hydroxypropyl cellulose, the AUCINF in data set [1] came to 535 ng·h/mL.

For Carbomer, the AUCINF in data set [1] was 289 ng·h/mL.

In data set [2], `N#Cc1ccc(N2N=C3c4ccc(C(=O)N5CCC(O)CC5)nc4CC[C@@H]3[C@@H]2C2CCCC2)cc1Cl` [Compound I with D90 of 3.8 μm] gave an AUCINF of 1045 ng·h/mL and a BA % of 66.9%.

In data set [1], Polysorbate 80 registered an AUCINF of 654 ng·h/mL.

Polyoxyl(40) stearate registered an AUCINF in data set [1] of 427 ng·h/mL.

In data set [2], `N#Cc1ccc(N2N=C3c4ccc(C(=O)N5CCC(O)CC5)nc4CC[C@@H]3[C@@H]2C2CCCC2)cc1Cl` [Compound I with D90 of 41.5 μm] displayed an AUCINF of 545 ng·h/mL and a BA % of 34.8%.

Polyethylene glycol 400 came in with an AUCINF in data set [1] of 613 ng·h/mL.

In the case of `CCOc1ncc(C)c2c1[C@H](c1ccc(C#N)cc1OC)C(C(N)=O)=C(C)N2` [Finerenone], the UACR reduced in data set [3] (Finerenone 7.5 mg/day) is 21%; in data set [3] (Finerenone 10 mg/day) it was 24%; in data set [3] (Finerenone 15 mg/day), 33%; in data set [3] (Finerenone 20 mg/day), 38%. For the same compound, the “incidence of discontinuation due to onset of hyperkalemia” value in data set [3] (Finerenone 7.5 mg/day) is recorded as 2.1%; in data set [3] (Finerenone 10 mg/day), 0%; in data set [3] (Finerenone 15 mg/day) it was 3.2%; in data set [3] (Finerenone 20 mg/day) it was 1.7%.

For the compound `N#Cc1ccc(N2N=C3c4ccc(C(=O)N5CCC(O)CC5)nc4CC[C@@H]3[C@@H]2C2CCCC2)cc1Cl` [Compound I with D90 of 72.0 μm], the AUCINF in data set [2] came to 207 ng·h/mL. For the same compound, the BA % in data set [2] and in data set [2] (listed as Compound I with D90 of 72.2 μm) was 13.2% in each case.

As for `N#Cc1ccc(N2N=C3c4ccc(C(=O)N5CCC(O)CC5)nc4CC[C@@H]3[C@@H]2C2CCCC2)cc1Cl` [Compound I with D90 of 21.7 μm], in data set [2], the AUCINF was determined as 854 ng·h/mL and the BA % was 54.6%.

In the case of `N#Cc1ccc(N2N=C3c4ccc(C(=O)N5CCC(O)CC5)nc4CC[C@@H]3[C@@H]2C2CCCC2)cc1Cl` [Compound I with D90 of 538 nm], in data set [2], the AUCINF turned out to be 1287 ng·h/mL and the BA % amounted to 82.3%.

Hydroxypropyl methyl cellulose gave an AUCINF in data set [1] of 483 ng·h/mL.

Usually AUC(0-inf) stands for the area under the concentration-time curve extrapolated to infinity. Higher therefore signals high exposure. Compound `N#Cc1ccc(N2N=C3c4ccc(C(=O)N5CCC(O)CC5)nc4CC[C@@H]3[C@@H]2C2CCCC2)cc1Cl` [Compound I having D90 of 5 μm] registered an AUC(0-inf) in data set [4] (dog, plasma, po) of 506 ng·h/mL. This compound displayed a BA % in data set [4] of 57.4%.

The record behind these values is patent US11806344B2, “Pharmaceutical composition comprising mineralocorticoid receptor antagonist and use thereof” (priority 2016, dated 2023).
